The text below walks through data of US10221392B2, “Generation of pancreatic endoderm from pluripotent stem cells using small molecules” (Novo Nordisk A/S, priority 2012, dated 2019).

Molecules are shown by their SMILES.

What all share (format): cell-based, human
Assay [1] relates to NKX6.1/PDX1 double positive cells. In words: NKX6.1/PDX1 library screen, early phase (compounds on top of bFGF based PE media, first seven days). The settings on record: concentration at which the fraction of NKX6.1/PDX1 double positive cells was enhanced more than 200% compared the PE media. The method, then: Human embryonic stem (hES) cells line SA121 and human induced pluripotent stem cells (hiPSC) chIPS4 (Cellectis) were grown in DEF-CS culture media (Cellectis) in T75 culture flasks.
After 24 hours the cells were washed with RPMI1640 and treated with 100 ng/ml Activin A (Peprotech #120-14E) in RPMI1640. […] Cells were maintained at 37° C. and 5% CO2 in a humidified incubator during the differentiation.
The DE cells were seeded at 200 000/cm^2 in 96 well optical plates (BD Bioscience), and PE differentiation using screening compounds was initiated the following day.
Cells were washed three times with PBS. […] Cells were washed five times and left in 200 μL PBS for imaging.
Imaging was performed using the InCell Analyzer 2000 (GE Healthcare). 4 fields per well with 10× objective were captured. The total cell number based in the DAPI counterstaining and the number of NKX6.1/PDX1 double positive cells was determined using InCell Developer Toolbox 1.8 (GE Healthcare). The fraction of NKX6.1/PDX1 double positive cells was normalized to the benchmark on each plate and the % effect was calculated. Values above 200% effect were categorized as hits.
The compounds within the bioactive library were tested at 1 uM and 0.1 uM. Compounds from the other libraries were tested at 10 uM and 1 uM. In a second candidate based screening approach, small molecules that target the main signalling pathways involved in pancreas development were included.
The library PE screening approach was divided into an early and a late phase (FIG. 1).
In the early phase, compounds were tested on top of the PE media for the first seven days of PE differentiation, and then the differentiation was continued for additional six days using PE media without compounds.
The screen was divided into an early and a late phase (FIG. 1). In the early phase, compounds were tested on top of the PE media for the first seven days of PE differentiation, and then continued for additional six days using PE media without compounds. In the late phase, DE cells were differentiated in the PE media for the first seven days. In the following six days compounds were tested on top of the PE media. Twelve positive control wells (PE media) and 12 negative control wells (PE media without bFGF) were included in each 96 well plate. Media change was performed daily.

Assay [2] has the same test system. In words: Candidate based PE screen 2 (after 4 days hit compound of screen 1, compounds in basal medium for last 10 days). The settings on record: cells first exposed to hit compound from screen 1 for 4 days, compounds added for last 10 days; FIG. 5.
Procedure: Pluripotent stem (PS) cells were differentiated into definitive endoderm according to DE protocol (See general methods) and seeded in 96 well plates for screening. The pancreatic endoderm screen was divided into two parts. In screen 1, compounds were added to a basal medium (RPMI1640+0.1% PEST+12% KOSR) the first eight days of PE differentiation. […] In screen 2, cells were first differentiated for 4 days with the hit compounds from screen 1, then screening compounds were added the last 10 days to basal medium.
For assay [3] the test system is unchanged. In words: Candidate based PE screen 1 (compounds in basal medium without bFGF, first eight days). The following applies: compared to benchmark protocol (Ameri et al, 2010); hiPSC and hESC; FIG. 5. The procedure: Pluripotent stem (PS) cells were differentiated into definitive endoderm according to DE protocol (See general methods) and seeded in 96 well plates for screening. The pancreatic endoderm screen was divided into two parts. In screen 1, compounds were added to a basal medium (RPMI1640+0.1% PEST+12% KOSR) the first eight days of PE differentiation. Compounds were tested in 4 different time windows having 2 day increments and then cells were left to continue differentiation for another six days in the bFGF based published protocol (Ameri et al., 2010). In screen 2, cells were first differentiated for 4 days with the hit compounds from screen 1, then screening compounds were added the last 10 days to basal medium.
Human embryonic stem (hES) cells line SA121 and human induced pluripotent stem cells (hiPSC) chIPS4 (Cellectis) were grown in DEF-CS culture media (Cellectis) in T75 culture flasks. […]
Imaging was performed using the InCell Analyzer 2000 (GE Healthcare). […] The total cell number based in the DAPI counterstaining and the number of NKX6.1/PDX1 double positive cells was determined using InCell Developer Toolbox 1.8 (GE Healthcare). The fraction of NKX6.1/PDX1 double positive cells was normalized to the benchmark on each plate and the % effect was calculated. […]

With `NC(=O)c1ccc2[nH]c(-c3ccc(Oc4ccc(Cl)cc4)cc3)nc2c1` [Chk2 Inhibitor II], in assay [1], the “hit concentration (Concentration)” value amounted to 10 µM. `Cc1ccc2nc(NC(=O)CSc3nc4c(c(=O)n3-c3ccccc3)SCC4)sc2c1` [IWP2]: the “hit identification, candidate screen 2” value in assay [2] is on record as “hit compounds”. For the molecule `CC1=C2C[C@H]3[C@@H](CC=C4C[C@@H](O)CC[C@@]43C)[C@@H]2CC[C@]12O[C@@H]1C[C@H](C)CN[C@H]1[C@H]2C` [Cyclopamine], in assay [2], the “hit identification, candidate screen 2” value is listed as “hit compounds”. For the molecule `O=c1cc(-c2cccc3c2Sc2ccccc2S3)oc(N2CCOCC2)c1` [ATM Kinase Inhibitor], the “hit concentration (Concentration)” value in assay [1] worked out at 10 µM. Still for that read-out and setting: for `Fc1ccc(-c2nc3n(c2-c2ccncc2)CCS3)cc1` [SKF-86002] the value was 10 µM. On to `c1ccc2c(-c3cnn4cc(-c5ccc(N6CCNCC6)cc5)cnc34)ccnc2c1` [LDN-193189], for which the “hit identification and most effective time window, candidate screen 1” value in assay [3] was “most effective when added for the first 4 days followed by 4 days basal medium”.

Take `COc1ccc(-c2cnc3c(-c4ccsc4)cnn3c2)cc1` [VEGF Receptor 2 Kinase Inhibitor IV]: the “hit concentration (Concentration)” value in assay [1] turned out to be 10 µM.
